Test results: patent US10759813B2, “Neprilysin inhibitors” (THERAVANCE BIOPHARMA R&D IP, LLC, priority 2010, dated 2020)

What follows are compounds tested against human neprilysin (EC 3.4.24.11; NEP) (Homo sapiens (Human), UniProt P08473) (assay: In vitro enzyme inhibition assay at human NEP (fluorogenic peptide substrate)). Settings: pKi values at human NEP, recombinant human NEP.
Type: biochemical
Outline: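 pKi derived from apparent Ki fitted as v=v0/[1+(I/K′)] to Ex320/Em405 fluorescence. Compounds (pM to 10 μM) sat with recombinant human enzyme 30 min at 37 °C before 10 μM fluorogenic Mca peptide was added in HEPES pH 7.5 buffer with 10 μM ZnSO4; 20 min reaction, acetic acid quench.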

Sequence of human neprilysin (EC 3.4.24.11; NEP) (P08473 52-750): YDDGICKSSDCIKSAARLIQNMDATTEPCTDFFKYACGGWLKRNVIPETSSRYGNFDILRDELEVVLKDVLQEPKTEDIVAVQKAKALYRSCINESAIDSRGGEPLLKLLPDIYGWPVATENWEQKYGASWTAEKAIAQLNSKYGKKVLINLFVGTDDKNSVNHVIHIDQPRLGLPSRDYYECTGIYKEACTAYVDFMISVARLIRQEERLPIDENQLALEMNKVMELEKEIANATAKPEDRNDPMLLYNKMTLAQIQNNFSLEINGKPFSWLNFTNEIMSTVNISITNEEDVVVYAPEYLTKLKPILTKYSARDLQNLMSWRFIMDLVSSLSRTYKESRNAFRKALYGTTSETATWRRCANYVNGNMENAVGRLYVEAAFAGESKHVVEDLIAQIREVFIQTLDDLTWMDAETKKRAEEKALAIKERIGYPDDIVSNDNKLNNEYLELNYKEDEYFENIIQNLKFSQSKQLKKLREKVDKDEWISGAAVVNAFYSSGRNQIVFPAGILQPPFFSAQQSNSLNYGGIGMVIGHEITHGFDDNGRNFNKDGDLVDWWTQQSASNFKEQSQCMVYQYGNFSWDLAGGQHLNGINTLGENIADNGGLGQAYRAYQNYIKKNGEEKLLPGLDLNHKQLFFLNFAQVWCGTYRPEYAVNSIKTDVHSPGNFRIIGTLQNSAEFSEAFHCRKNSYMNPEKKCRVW

Ki [nM] | pKi | SMILES
12.6 to 100 | – | Cc1cc(C(=O)N[C@H](Cc2ccc(-c3ccccc3)cc2)CC(O)C(=O)O)n[nH]1 (stereo partly drawn) [Example 15-19, (R)-5-Biphenyl-4-yl-2-hydroxy-4-[(5-methyl-1H-pyrazole-3-carbonyl)amino]pentanoic acid]
– | ≥9.0 | CN(C)C(=O)c1cc(C(=O)N[C@H](Cc2ccc(-c3ccccc3)cc2)C[C@@H](O)C(=O)O)[nH]n1 [Example 15-63, (2R,4R)-5-Biphenyl-4-yl-4-[(5-dimethylcarbamoyl-2H-pyrazole-3-carbonyl)-amino]-2-hydroxy-pentanoic acid]
– | ≥9.0 | O=C(NC1CC1)c1cc(C(=O)N[C@H](Cc2ccc(-c3ccccc3)cc2)C[C@@H](O)C(=O)O)[nH]n1 [Example 15-57, (2R,4R)-5-Biphenyl-4-yl-4-[(5-cyclopropylcarbamoyl-2H-pyrazole-3-carbonyl)-amino]-2-hydroxypentanoic acid]
– | ≥9.0 | O=C(N[C@H](Cc1ccc(-c2cccc(Cl)c2)cc1)C[C@@H](O)C(=O)O)c1cc(O)n(-c2ccccn2)n1 [Example 18-37, (2R,4R)-5-(3′-Chloro-biphenyl-4-yl)-2-hydroxy-4-[(5-hydroxy-1-pyridin-2-yl-1H-pyrazole-3-carbonyl)-amino]-pentanoic acid]
12.6 to 100 | – | O=C(N[C@H](Cc1ccc(-c2ccccc2)cc1)CC(O)C(=O)O)c1cc(-c2ccc(-c3ccccc3)cc2)[nH]n1 (stereo partly drawn) [Example 15-39, (R)-5-Biphenyl-4-yl-4-[(5-biphenyl-4-yl-1H-pyrazole-3-carbonyl)amino]-2-hydroxy-pentanoic acid]
– | ≥9.0 | O=C(N[C@@H](Cc1ccc(-c2cc(O)cc(Cl)c2)cc1)C[C@H](O)C(=O)O)c1ccc2nnn(O)c2c1 [Example 23-8, (2S,4S)-5-(3′-Chloro-5′-hydroxy-biphenyl-4-yl)-2-hydroxy-4-[(3-hydroxy-3H-benzotriazole-5-carbonyl)-amino]-pentanoic acid]
12.6 to 100 | – | O=C(N[C@H](Cc1ccc(-c2ccccc2)cc1)C[C@H](O)C(=O)O)c1cc(C(=O)N2CCC(O)CC2)n[nH]1 [Example 15-50, (2S,4R)-5-Biphenyl-4-yl-2-hydroxy-4-{[5-(4-hydroxypiperidine-1-carbonyl)-2H-pyrazole-3-carbonyl]-amino}-pentanoic acid]
1.26 to 10 | – | O=C(N[C@H](Cc1ccc(-c2ccccc2)cc1)C[C@@H](O)C(=O)O)c1cnc(-c2ccccc2)o1 [Example 12-23, (2R,4R)-5-Biphenyl-4-yl-2-hydroxy-4-[(2-phenyl-oxazole-5-carbonyl)-amino]-pentanoic acid]
1.26 to 10 | – | O=C(N[C@H](Cc1ccc(-c2ccccc2)cc1)CC(O)C(=O)O)c1cc(C(=O)N2CCOCC2)n[nH]1 (stereo partly drawn) [Example 15-53, (R)-5-Biphenyl-4-yl-2-hydroxy-4-{[5-(morpholine-4-carbonyl)-2H-pyrazole-3-carbonyl]amino}pentanoic acid]
– | ≥9.0 | Cc1ccc(-c2cc(C(=O)N[C@H](Cc3ccc(-c4ccccc4)cc3)C[C@@H](O)C(=O)O)[nH]n2)s1 [Example 15-89, (2R,4R)-5-Biphenyl-4-yl-2-hydroxy-4-{[5-(5-methylthiophen-2-yl)-2H-pyrazole-3-carbonyl]-amino}-pentanoic acid]
1.26 to 10 | – | O=C(O)c1ccc(C(=O)N[C@H](Cc2ccc(-c3ccccc3)cc2)CC(O)C(=O)O)s1 (stereo partly drawn) [Example 12-2, 5-((R)-1-Biphenyl-4-ylmethyl-3-carboxy-3-hydroxypropylcarbamoyl)thiophene-2-carboxylic acid]
12.6 to 100 | – | CC(C)CN(C)C(=O)c1cc(C(=O)N[C@H](Cc2ccc(-c3ccccc3)cc2)C[C@H](O)C(=O)O)[nH]n1 [Example 15-65, (2S,4R)-5-Biphenyl-4-yl-2-hydroxy-4-{[5-(isobutylmethyl-carbamoyl)-2H-pyrazole-3-carbonyl]amino}-pentanoic acid]
12.6 to 100 | – | O=C(NCCc1cnc[nH]1)c1cc(C(=O)N[C@H](Cc2ccc(-c3ccccc3)cc2)C[C@@H](O)C(=O)O)[nH]n1 [Example 15-69, (2R,4R)-5-Biphenyl-4-yl-2-hydroxy-4-({5-[2-(3H-imidazol-4-yl)-ethylcarbamoyl]-2H-pyrazole-3-carbonyl}amino)pentanoic acid]
– | ≥9.0 | COCCN(C)C(=O)c1cc(C(=O)N[C@H](Cc2ccc(-c3ccccc3)cc2)C[C@@H](O)C(=O)O)[nH]n1 [Example 3-D, (2R,4R)-5-Biphenyl-4-yl-2-hydroxy-4-({5-[(2-methoxyethyl)methylcarbamoyl]-2H-pyrazole-3-carbonyl}amino)pentanoic Acid]
1.26 to 10 | – | O=C(O)CCn1nc(C(=O)N[C@H](Cc2ccc(-c3ccccc3)cc2)C[C@@H](O)C(=O)O)cc1-c1ccccc1 [Example 15-36, (2R,4R)-5-Biphenyl-4-yl-4-{[1-(2-carboxy-ethyl)-5-phenyl-1H-pyrazole-3-carbonyl]-amino}-2-hydroxy-pentanoic acid]
– | ≥9.0 | COc1ccccc1-c1ccc(C[C@H](C[C@@H](O)C(=O)O)NC(=O)c2cn(O)nn2)cc1 [Example 19-17, (2R,4R)-2-Hydroxy-4-[(1-hydroxy-1H-[1,2,3]triazole-4-carbonyl)-amino]-5-(2′-methoxy-biphenyl-4-yl)-pentanoic acid]
– | ≥9.0 | CC(C)(c1ccc(-c2ccccc2)cc1)[C@H](C[C@@H](O)C(=O)O)NC(=O)c1cc(C(=O)O)n[nH]1 [Example 24, 5-[(S)-2-Biphenyl-4-yl-1-((R)-2-carboxy-2-hydroxy-ethyl)-2-methyl-propylcarbamoyl]-1H-pyrazole-3-carboxylic Acid]
12.6 to 100 | – | O=C(N[C@H](Cc1ccc(-c2ccccc2)cc1)CC(O)C(=O)O)c1cc(-c2ccccc2C(F)(F)F)n[nH]1 (stereo partly drawn) [Example 15-81, (R)-5-Biphenyl-4-yl-2-hydroxy-4-{[5-(2-trifluoromethyl-phenyl)-2H-pyrazole-3-carbonyl]-amino}-pentanoic acid]
– | ≥9.0 | O=C(N[C@H](Cc1ccc(-c2cccc(Cl)c2)cc1)C[C@@H](O)C(=O)O)c1nn(-c2cccc(Cl)c2)c(=O)[nH]1 [Example 18-42, (2R,4R)-5-(3′-Chloro-biphenyl-4-yl)-4-{[1-(3-chloro-phenyl)-5-oxo-4,5-dihydro-1H-[1,2,4]triazole-3-carbonyl]-amino}-2-hydroxy-pentanoic acid]
– | ≥9.0 | C/C(=N\O)c1cc(C(=O)N[C@H](Cc2ccc(-c3ccccc3)cc2)C[C@@H](O)C(=O)O)[nH]n1 [Example 15-111, (2R,4R)-5-Biphenyl-4-yl-2-hydroxy-4-[(5-{1-[(E)-hydroxyimino]-ethyl}-2H-pyrazole-3-carbonyl)-amino]-pentanoic acid]
– | ≥9.0 | O=C(N[C@H](Cc1ccc(-c2ccccc2)cc1)C[C@@H](O)C(=O)O)c1cc(-c2ccccc2O)n(CC(O)CO)n1 (stereo partly drawn) [Example 15-30, (2R,4R)-5-Biphenyl-4-yl-4-{[1-(2,3-dihydroxy-propyl)-5-(2-hydroxy-phenyl)-1H-pyrazole-3-carbonyl]-amino}-2-hydroxy-pentanoic acid]
– | ≥9.0 | O=C(N[C@H](Cc1ccc(-c2ccccc2)cc1Cl)C[C@@H](O)C(=O)O)c1cc(-c2cccnc2)n[nH]1 [Example 20-8, (2R,4R)-5-(3-Chloro-biphenyl-4-yl)-2-hydroxy-4-[(5-pyridin-3-yl-2H-pyrazole-3-carbonyl)-amino]-pentanoic acid]
– | ≥9.0 | COc1cc(C(=O)N[C@H](Cc2ccc(-c3cc(Cl)ccc3F)cc2)C[C@@H](O)C(=O)O)on1 [Example 19-19, (2R,4R)-5-(5′-Chloro-2′-fluoro-biphenyl-4-yl)-2-hydroxy-4-[(3-methoxy-isoxazole-5-carbonyl)-amino]-pentanoic acid]

SMILES | Ki [nM] | pKi
CC(=O)OCOn1nnc2ccc(C(=O)N[C@H](Cc3ccc(-c4cc(Cl)ccc4Cl)cc3)C[C@@H](O)C(=O)O)cc21 [Example 19-21, (2R,4R)-4-[(3-Acetoxymethoxy-3H-benzotriazole-5-carbonyl)-amino]-5-(2′,5-dichloro-biphenyl-4-yl)-2-hydroxy-pentanoic acid] | ≤ 1 | –
